Reference: article PMC11120612, “In Vitro and In Vivo Evaluating Bioaccessibility, Bioavailability, and Antioxidant Activities of Butterfly Pea Flower Containing Bioactive Constitutes” (Foods, 2024)
Read-outs that look alike come from different tables or passages of the source. Values belong to the compound of their own block, whether it stands above or below them.

Columns and labels:
[1] = Serum pharmacokinetics in rats after consumption of 500 mg/kg BW of BF extracts; format: in vivo, SD rats; conditions: for Detection in rat plasma/blood after administration of BF extracts: 500 mg/kg BW BF extracts
Procedure: (§1) A total of 24 male SD rats aged between 6 and 8 weeks (200–220 g) were acquired from the Laboratory Animal Center of Jiangxi University of Chinese Medicine (Nanchang, China). Prior to experimentation, the rats were acclimated for 7 days in an air-conditioned room maintained at 24 ± 1 °C with a 12 h light/dark cycle. During this period, they had free access to food and water. After adaptive feeding, rats were randomly divided into three groups (n = 8), including a negative control, serum collection, and urine collection groups. […] To establish baseline data, blood samples were collected from all rats before administering the BF extracts. Blood was collected from the orbits at 15 min, 30 min, 1 h, 1.5 h, 2 h, 4 h, 6 h, 8 h, and 10 h after drug administration. Urine was collected at 6, 12, and 24 h after administration. Pretreatment of serum and urine samples was according to our previous study. The animal experiments were approved by the Animal Ethics Committee of Jiangxi University of Chinese Medicine (TEMPOR20230112).
The quantification of substances identified was performed using an AB TRIPLE QUAD 4500 HPLC-MS2 (AB SCIEX, Framingham, MA, USA) system equipped with a C18 column (2.1 × 100 mm, 1.7 μm particle size; ACQUITY) at room temperature (25 °C). The mobile phase consisted of A (water containing 0.2% formic acid, v/v) and B (acetonitrile containing 0.2% formic acid, v/v) and the following binary program was used: 0–3 min, 5% B; 3–4 min, 95% B; 4–4.1 min, 95–5% B; 4.1–6.0 min, 5% B. The flow rate was 0.3 mL/min, and the injection volume was 10 μL. For sensitive detection and quantification, the analysis employed electrospray ionization (ESI) followed by multiple reaction monitoring (MRM) to selectively monitor the fragmentation patterns of the target analytes. Data acquisition and processing were performed with Qualbrowser.
Blood concentration/time data analysis was performed by non-compartment model analysis and processed using Peak View®1.6 (AB SCIEX), according to a previous publication. All data are presented as mean ± standard deviation (SD). The maximum plasma concentration (Cmax), and the time to reach the maximum plasma concentration (tmax) was calculated from the observed values.

[2] = Identification of prototypes and metabolites in rat serum and urine by UPLC-LTQ-Orbitrap-MS2 after BF extracts; format: in vivo, SD rats; conditions: for Location: rat serum or urine after 500 mg/kg BW BF extracts, UPLC-LTQ-Orbitrap-MS2; for Detected in serum and/or urine: rat, after gavage of BF extracts
From the text: as §1, with “Prior to experimentation, the rats were acclimated for 7 days in an air-conditioned room maintained at 24 ± 1 °C with a 12 h light/dark cycle.” left out, “Blood was collected from the orbits at 15 min, 30 min, 1 h, 1.5 h, 2 h, 4 h, 6 h, 8 h, and 10 h after drug administration. Urine was collected at 6, 12, and 24 h after administration.” left out
The metabolic profile from blood and urine samples were conducted by UPLC-LTQ-Orbitrap-MS2 (Thermo Scientific, Bremen, Germany) according to previously published methods. The samples were prepared by SPE, centrifuged at 4 °C and 2000 rpm, and stored at −80 °C. […] The LTQ-Orbitrap-MS2 was operated in negative mode with a scan range of 50–2000 m/z. A data-dependent scan with CID was performed for fragmentation. The collision energy was set at 45 eV. Data acquisition and processing were performed with Xcalibur v.2.0 software (Thermo Fisher, San Jose, CA, USA) and Qualbrowser.

[3] = set-up: method as in PMID 16848510; conditions: cited from earlier work
[4] = male, SD, rat serum, oral 500 mg/kg BW BF extracts, n = 8
[5] = rat serum, oral 500 mg/kg BW BF extracts, n = 8

Compound: O=C(O)c1ccc(O)cc1 [4-Hydroxybenzoic acid, 4-hydroxybenzoic acid]
AUC(0-t) ([1]; male, SD, rat serum, oral 500 mg/kg BW BF extracts, 0 to 10 h, n = 8, read-out: AUC0-10): 0.0313 ± 0.00191 µM·h
Cmax [1, 4]: 6.98 ± 0.805 nM
half-life [1, 4]: 6.48 ± 5.16 h
tmax ([1]; male, SD, rat serum, oral 500 mg/kg BW BF extracts, n = 8, read-out: tmax): 1 h
Detection in rat plasma/blood after administration of BF extracts [1]: detected

Compound: OC[C@H]1O[C@@H](Oc2cc3c(O)cc(O)cc3[o+]c2-c2cc(O)c(O)c(O)c2)[C@H](O)[C@@H](O)[C@@H]1O [Delphinidin 3-glucoside, delphinidin 3-glucoside]
AUC0-10 ([1]; rat serum, oral 500 mg/kg BW BF extracts, 0 to 10 h, n = 8): 0.054654 ± 0.009089 µM·h
Cmax [1, 5]: 51.6 ± 3.2 nM
t1/2 [1, 5]: 1.639 ± 0.271 h
tmax [1, 5]: 0.5 h
Detection in rat plasma/blood after administration of BF extracts [1]: detected
Location [2]: S, U
Detected in serum and/or urine [2]: both serum and urine

Compound: C[C@@H]1O[C@@H](OC[C@H]2O[C@@H](Oc3c(-c4ccc(O)c(O)c4)oc4cc(O)cc(O)c4c3=O)[C@H](O)[C@@H](O)[C@@H]2O)[C@H](O)[C@H](O)[C@H]1O [rutin]
Detected in serum and/or urine [2]: exclusively in urine

Compound: O=C([O-])CC(=O)OC[C@H]1O[C@@H](Oc2cc3c(O)cc(O)cc3[o+]c2-c2cc(O[C@@H]3O[C@H](COC(=O)/C=C/c4ccc(O[C@@H]5O[C@H](COC(=O)/C=C/c6ccc(O)cc6)[C@@H](O)[C@H](O)[C@H]5O)cc4)[C@@H](O)[C@H](O)[C@H]3O)c(O)c(O[C@@H]3O[C@H](COC(=O)/C=C/c4ccc(O[C@@H]5O[C@H](COC(=O)/C=C/c6ccc(O)cc6)[C@@H](O)[C@H](O)[C@H]5O)cc4)[C@@H](O)[C@H](O)[C@H]3O)c2)[C@H](O)[C@@H](O)[C@@H]1O [ternatin D1]
Detection in rat plasma/blood after administration of BF extracts [1]: not detected

Compound: benzoic acid-4-glucuronide [M19]
Location [2]: S, U

Compound: cyanidin-3-(p-coumaroyl) glucose
Location [2]: S
Detected in serum and/or urine [2]: serum

Compound: delphinidin-3-p-coumaroyl-rutinoside-5-glucoside [nasunin]
Time of rapid peak in rat plasma (postprandial) [3]: 15 min

Other lines, results leading:

Location [2]: S
Compound: O=C(O)c1ccc(O)c(OC2OC(C(=O)O)C(O)C(O)C2O)c1 (stereo not shown) [M11, PCA-3-glucuronide]

Location [2]: S
Compound: COc1cc(C(=O)O)ccc1O[C@@H]1O[C@H](C(=O)O)[C@@H](O)[C@H](O)[C@H]1O [M12, VA-4-glucuronide]

Location [2]: S, U
Compound: O=C(O)c1ccc(O[C@@H]2O[C@H](C(=O)O)[C@@H](O)[C@H](O)[C@H]2O)c(O)c1 [M13, PCA-4-glucuronide]

Location [2]: S, U
Compound: Oc1cc(O)c2cc(O)c(-c3cc(O)c(O)c(O)c3)[o+]c2c1 [M16, delphinidin]
